Data from patent US9247740B2, “Isoxazoline derivatives as insecticidal compounds” (Syngenta Participations AG, priority 2011, dated 2016).

Legend:
Assay type in all cases: in vivo
[1] = test system: Spodoptera littoralis (Egyptian Cotton Leafworm); test: Spodoptera littoralis leaf disc spray test; details: foliar, 72 h, 200 ppm spray on cotton leaf discs, mortality, feeding behavior, growth regulation 3 days after treatment
Protocol: This Example illustrates the insecticidal and acaricidal properties of compounds of formula (I). Tests were performed as follows:

[2] = test system: Heliothis virescens (Tobacco Budworm); test: Heliothis virescens egg test on artificial diet; details: 96 h, 200 ppm (concentration in well 18 ppm), eggs 0-24 h old on artificial diet, egg mortality, larval mortality, growth regulation after 4 days
Description: (§1) This Example illustrates the insecticidal and acaricidal properties of compounds of formula (I).

[3] = test system: Plutella xylostella (Diamond Back Moth); test: Plutella xylostella larval test on artificial diet; details: 144 h, 200 ppm (concentration in well 18 ppm), L2 larvae, larval mortality and growth regulation after 6 days
Description: as §1

[4] = test system: Diabrotica balteata (Corn Root Worm); test: Diabrotica balteata larval test on artificial diet; details: 120 h, 200 ppm (concentration in well 18 ppm), L2 larvae, larval mortality and growth regulation after 5 days
Description: as §1

[5] = test system: Tetranychus urticae (Two-Spotted Spider Mite); test: Tetranychus urticae leaf disc spray test; details: foliar, 192 h, 200 ppm spray on bean leaf discs, mixed ages, egg, larval and adult mortality 8 days later
Description: as §1

[6] = test system: Thrips tabaci (Onion Thrips); test: Thrips tabaci leaf disc spray test; details: foliar, 168 h, 200 ppm spray on sunflower leaf discs, mixed ages, mortality after 7 days
Description: as §1

Measured: pest or weed control at 200 ppm

O=C(NC1CSC1)c1ccc(C2=NOC(c3cc(Cl)cc(Cl)c3)(C(F)(F)F)C2)c([N+](=O)[O-])c1 (stereo not shown) [Compound B55, 4-[5-(3,5-dichlorophenyl)-5-trifluoromethyl-4H-isoxazol-3-yl]-3-nitro-N-(thietan-3-yl)benzamide]
≥ 80%: [1] | [2] | [3] | [4]

Nc1cc(C2=NOC(c3cc(Cl)cc(Cl)c3)(C(F)(F)F)C2)ccc1C(=O)NC1CSC1 (stereo not shown) [Compound B57, 4-[5-(3,5-dichlorophenyl)-5-trifluoromethyl-4H-isoxazol-3-yl]-2-amino-N-(thietan-3-yl)benzamide]
not listed: [6]
≥ 80%: all other assays above

Cc1cc(C2=NOC(c3cc(C(C)(C)C)c[nH]3)(C(F)(F)F)C2)ccc1C(=O)NC1CSC1 (stereo not shown) [Compound C003, 4-[5-(4-tert-butyl-1H-pyrrol-2-yl)-5-(trifluoromethyl)-4H-isoxazol-3-yl]-2-methyl-N-(thietan-3-yl)benzamide]
≥ 80%: [2]

Cc1cc(C2=NOC(c3cn(CC(F)F)cc3C(C)(C)C)(C(F)(F)F)C2)ccc1C(=O)NC1CSC1 (stereo not shown) [Compound C005, 4-[5-[4-tert-butyl-1-(2,2-difluoroethyl)pyrrol-3-yl]-5-(trifluoromethyl)-4H-isoxazol-3-yl]-2-methyl-N-(thietan-3-yl)benzamide]
not listed: [6]
≥ 80%: all other assays above

Cc1cc(C2=NOC(c3c[nH]c(C(F)(F)F)c3)(C(F)(F)F)C2)ccc1C(=O)NC1CS(=O)(=O)C1 (stereo not shown) [Compound C008, N-(1,1-dioxothietan-3-yl)-2-methyl-4-[5-(trifluoromethyl)-5-[5-(trifluoromethyl)-1H-pyrrol-3-yl]-4H-isoxazol-3-yl]benzamide]
≥ 80%: [2] | [6] | [5]

Cc1cc(C2=NOC(c3c[nH]c(C(F)(F)F)c3)(C(F)(F)F)C2)ccc1C(=O)NC1CSC1 (stereo not shown) [Compound C010, 2-methyl-N-(thietan-3-yl)-4-[5-(trifluoromethyl)-5-[5-(trifluoromethyl)-1H-pyrrol-3-yl]-4H-isoxazol-3-yl]benzamide]
≥ 80%: [6] | [5]

Cc1cc(C2=[N+]([O-])OC(c3cc(Cl)cc(Cl)c3)(C(F)(F)F)C2)ccc1C(=O)NC1CSC1 (stereo not shown) [Compound C011, 4-[5-(3,5-dichlorophenyl)-2-oxido-5-(trifluoromethyl)-4H-isoxazol-2-ium-3-yl]-2-methyl-N-(thietan-3-yl)benzamide]
≥ 80%: [1] | [2] | [4]

Cc1cc(C2=[N+]([O-])OC(c3cc(Cl)cc(Cl)c3)(C(F)(F)F)C2)ccc1C(=O)NC1CS(=O)(=O)C1 (stereo not shown) [Compound C012, 4-[5-(3,5-dichlorophenyl)-2-oxido-5-(trifluoromethyl)-4H-isoxazol-2-ium-3-yl]-N-(1,1-dioxothietan-3-yl)-2-methyl-benzamide]
not listed: [6]
≥ 80%: all other assays above
